Test results published in patent US12371428B2 (Exelixis, Inc., priority 2019, dated 2025).
Where two headings read alike, the source gives them in different places.

Legend:
[1] = molecular target: Mer (phospho-Mer, MERTK-transfected 293A cells) (Homo sapiens (Human), UniProt Q12866); assay: Mer autophosphorylation ELISA in transient transfected 293A cells (Example H); assay type: cell-based; conditions: cellular activity
Procedure, shortened: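 Inhibition of cellular Mer autophosphorylation is determined in 293A cells transiently expressing human MERTK after 1 h compound exposure (8 concentrations, serum-free, 0.3% DMSO). Phospho-Mer in clarified lysates is measured by ELISA, with DMSO and reference-inhibitor wells defining the 100% and 0% activity limits.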

[2] = molecular target: AXL (phospho-AXL, Gas6-stimulated A-172 glioblastoma cells) (Homo sapiens (Human), UniProt P30530); assay: AXL autophosphorylation ELISA in A-172 cells (Example E); assay type: cell-based; conditions: cellular activity, read-out: Axl IC50
Sequence of AXL (phospho-AXL, Gas6-stimulated A-172 glioblastoma cells) (P30530 26-894): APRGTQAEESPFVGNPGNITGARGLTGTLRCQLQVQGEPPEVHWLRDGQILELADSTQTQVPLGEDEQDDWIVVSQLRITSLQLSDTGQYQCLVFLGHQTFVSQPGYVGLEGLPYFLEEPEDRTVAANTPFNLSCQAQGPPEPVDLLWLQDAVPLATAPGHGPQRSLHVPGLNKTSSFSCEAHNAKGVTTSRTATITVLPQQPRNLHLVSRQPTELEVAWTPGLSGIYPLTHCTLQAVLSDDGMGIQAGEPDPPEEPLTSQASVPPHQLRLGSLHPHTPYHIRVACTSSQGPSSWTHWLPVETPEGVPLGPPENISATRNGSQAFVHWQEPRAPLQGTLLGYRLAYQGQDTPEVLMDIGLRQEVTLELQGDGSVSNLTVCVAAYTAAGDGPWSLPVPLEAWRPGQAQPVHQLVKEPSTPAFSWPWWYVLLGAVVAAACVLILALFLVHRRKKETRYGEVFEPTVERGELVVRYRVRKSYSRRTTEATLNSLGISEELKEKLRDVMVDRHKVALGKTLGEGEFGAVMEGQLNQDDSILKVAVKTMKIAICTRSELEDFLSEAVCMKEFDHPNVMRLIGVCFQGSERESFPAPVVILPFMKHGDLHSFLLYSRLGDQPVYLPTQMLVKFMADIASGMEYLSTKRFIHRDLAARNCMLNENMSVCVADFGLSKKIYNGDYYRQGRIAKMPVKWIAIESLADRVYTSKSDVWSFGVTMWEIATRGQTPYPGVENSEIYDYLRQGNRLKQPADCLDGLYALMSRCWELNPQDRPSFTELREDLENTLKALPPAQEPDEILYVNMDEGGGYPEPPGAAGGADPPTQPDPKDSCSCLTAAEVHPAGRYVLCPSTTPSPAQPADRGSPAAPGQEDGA
Experimental: A-172 cells were incubated at 37° C., 5% CO2 for 24 h and then starved for 24 h in serum-free medium. Test compounds were serially diluted to produce an 8-point dose curve in fresh serum-free medium to a final concentration of 0.3% DMSO (vehicle) and added to the cells and incubated for 1 h. […] Lysates were collected and 100 μL/well added into the human phospho-AXL DuoSet IC ELISA (R&D Systems #DYC2228-2). […] Positive control wells (100% activity) contained Gas6-stimulated, DMSO-treated cell lysates. Negative control wells (0% activity) contained Gas6-stimulated, reference inhibitor-treated cell lysates. IC50 values were calculated by nonlinear regression analysis using a 4-parameter logistic curve fit in ActivityBase XE (IDBS).

[3] = molecular target: Met (phospho-Met, HGF-stimulated PC-3 prostate cancer cells) (Homo sapiens (Human), UniProt P08581); assay: Met autophosphorylation ELISA in PC-3 cells (Example F); assay type: cell-based; conditions: cellular activity, read-out: c-Met IC50
Procedure, shortened: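 PC-3 cells, serum-starved 3 h, were treated with compounds (8-point dose curve, 0.3% DMSO final) for 1 h, then stimulated with 100 ng/mL recombinant human HGF for 10 min. Lysate phospho-Met (panTyr) was quantified by sandwich ELISA; IC50 from 4-parameter logistic fit.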

[4] = molecular target: Human MET (residues 956-1390) (Homo sapiens (Human), UniProt P08581); assay: Human Met kinase assay, HTRF KinEase (Example D-2); assay type: biochemical; conditions: read-out: c-Met IC50
Sequence of Human MET (residues 956-1390) (P08581 956-1390): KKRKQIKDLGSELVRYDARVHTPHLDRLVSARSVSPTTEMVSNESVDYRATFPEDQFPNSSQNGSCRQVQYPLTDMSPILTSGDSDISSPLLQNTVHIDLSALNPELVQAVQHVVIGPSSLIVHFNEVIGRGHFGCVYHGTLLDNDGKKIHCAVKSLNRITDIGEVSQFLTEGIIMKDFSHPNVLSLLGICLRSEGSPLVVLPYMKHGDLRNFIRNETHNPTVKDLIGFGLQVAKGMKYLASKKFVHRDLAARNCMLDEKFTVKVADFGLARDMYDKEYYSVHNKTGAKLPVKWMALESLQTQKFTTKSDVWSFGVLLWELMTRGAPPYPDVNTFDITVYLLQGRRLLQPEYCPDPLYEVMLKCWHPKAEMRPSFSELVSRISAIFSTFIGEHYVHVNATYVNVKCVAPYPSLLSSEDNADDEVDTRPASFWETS
Procedure, shortened: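 IC50 values come from a 4-parameter logistic fit of the […] fluorescence ratio, set between DMSO (100%) and reference compound at 1 μM (0%). Reactions held MET 956-1390 at 0.1 ng/well, ATP at Km, biotinylated peptide, 5 mM MgCl2, 1 mM MnCl2, 1 mM DTT and 3% DMSO, and ran 40 min at room temperature before streptavidin-XL665/Eu-antibody detection.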

[5] = molecular target: Human KDR (residues 790-1356) (Homo sapiens (Human), UniProt P35968); assay: Human KDR kinase assay, HTRF KinEase (Example B-2); assay type: biochemical
Sequence of Human KDR (residues 790-1356) (P35968 790-1356): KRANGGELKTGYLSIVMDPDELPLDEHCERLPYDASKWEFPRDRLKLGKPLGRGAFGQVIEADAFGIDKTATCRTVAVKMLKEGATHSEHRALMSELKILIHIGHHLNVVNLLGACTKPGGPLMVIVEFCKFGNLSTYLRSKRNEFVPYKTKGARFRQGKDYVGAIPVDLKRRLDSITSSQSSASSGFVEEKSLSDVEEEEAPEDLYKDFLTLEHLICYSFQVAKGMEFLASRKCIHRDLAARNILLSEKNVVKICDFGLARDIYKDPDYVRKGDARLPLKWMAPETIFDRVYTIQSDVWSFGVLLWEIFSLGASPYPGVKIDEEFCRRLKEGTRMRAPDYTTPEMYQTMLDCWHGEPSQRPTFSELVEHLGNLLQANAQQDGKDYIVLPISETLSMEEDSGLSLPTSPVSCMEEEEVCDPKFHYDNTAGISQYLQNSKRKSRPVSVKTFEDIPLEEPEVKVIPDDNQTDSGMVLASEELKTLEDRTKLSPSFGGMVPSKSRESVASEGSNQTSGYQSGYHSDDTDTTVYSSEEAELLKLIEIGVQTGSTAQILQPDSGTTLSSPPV
Procedure, shortened: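 Human KDR residues 790-1356 (0.1 ng/well) in buffer with 5 mM MgCl2, 1 mM MnCl2, 1 mM DTT, biotinylated peptide substrate, ATP at Km (4.0 μM), 3% DMSO, 10 compound concentrations; 40 min, room temperature. EDTA stop, streptavidin-XL665/Eu-TK antibody HTRF read 665/620 nm; 4-parameter IC50.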

[6] = molecular target: KDR (phospho-KDR, VEGF165-stimulated HUVEC cells) (Homo sapiens (Human), UniProt P35968); assay: KDR autophosphorylation ELISA in HUVEC cells (Example G); assay type: cell-based; conditions: cellular activity; KDR autophosphorylation ELISA in HUVEC cells
Sequence of KDR (phospho-KDR, VEGF165-stimulated HUVEC cells) (P35968 20-1356): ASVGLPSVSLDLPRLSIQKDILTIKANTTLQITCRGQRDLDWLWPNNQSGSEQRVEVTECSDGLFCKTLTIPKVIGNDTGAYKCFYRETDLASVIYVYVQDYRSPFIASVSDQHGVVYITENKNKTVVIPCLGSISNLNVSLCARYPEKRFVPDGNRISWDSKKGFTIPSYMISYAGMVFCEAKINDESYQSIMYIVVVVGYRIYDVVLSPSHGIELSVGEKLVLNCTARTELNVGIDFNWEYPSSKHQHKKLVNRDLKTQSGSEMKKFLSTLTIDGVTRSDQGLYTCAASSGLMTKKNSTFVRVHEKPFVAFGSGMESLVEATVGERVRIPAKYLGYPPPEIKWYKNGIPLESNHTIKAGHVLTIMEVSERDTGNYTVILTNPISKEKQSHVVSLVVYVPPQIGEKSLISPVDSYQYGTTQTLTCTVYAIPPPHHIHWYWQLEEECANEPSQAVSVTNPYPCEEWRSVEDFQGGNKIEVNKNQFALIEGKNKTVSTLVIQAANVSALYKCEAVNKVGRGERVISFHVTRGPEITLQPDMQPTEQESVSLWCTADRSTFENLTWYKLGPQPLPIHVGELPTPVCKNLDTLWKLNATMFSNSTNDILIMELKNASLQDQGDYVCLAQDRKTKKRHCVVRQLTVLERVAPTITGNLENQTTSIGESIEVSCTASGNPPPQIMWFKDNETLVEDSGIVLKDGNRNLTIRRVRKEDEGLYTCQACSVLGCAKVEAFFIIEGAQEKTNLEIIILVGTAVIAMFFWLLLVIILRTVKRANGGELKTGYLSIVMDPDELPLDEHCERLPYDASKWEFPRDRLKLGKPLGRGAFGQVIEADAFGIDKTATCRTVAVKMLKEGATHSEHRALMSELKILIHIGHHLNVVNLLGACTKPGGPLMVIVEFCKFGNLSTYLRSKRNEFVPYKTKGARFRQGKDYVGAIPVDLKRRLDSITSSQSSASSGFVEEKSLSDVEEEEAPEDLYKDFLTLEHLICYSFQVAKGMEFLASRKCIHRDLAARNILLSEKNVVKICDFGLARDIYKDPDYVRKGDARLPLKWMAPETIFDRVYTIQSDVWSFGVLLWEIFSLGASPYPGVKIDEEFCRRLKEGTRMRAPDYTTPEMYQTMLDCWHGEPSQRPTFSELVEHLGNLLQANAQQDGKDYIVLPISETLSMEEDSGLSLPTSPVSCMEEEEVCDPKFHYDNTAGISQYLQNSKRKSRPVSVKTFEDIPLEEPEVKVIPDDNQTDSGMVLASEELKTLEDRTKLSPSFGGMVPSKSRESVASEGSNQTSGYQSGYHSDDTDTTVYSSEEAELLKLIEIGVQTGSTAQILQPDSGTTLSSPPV
Procedure, shortened: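 HUVEC cells, serum-starved 24 h, were treated 1 h with an 8-point compound dilution (0.3% DMSO) and then stimulated with 100 ng/mL VEGF165 for 5 min. Phospho-KDR in lysates was quantified by sandwich ELISA against a phospho-KDR standard. IC50 from a 4-parameter logistic fit, normalised between stimulated DMSO and unstimulated controls.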

[7] = molecular target: Human MER (residues 528-999) (Homo sapiens (Human), UniProt Q12866); assay: Human Mer kinase assay, HTRF KinEase (Example C-2); assay type: biochemical
Sequence of Human MER (residues 528-999) (Q12866 528-999): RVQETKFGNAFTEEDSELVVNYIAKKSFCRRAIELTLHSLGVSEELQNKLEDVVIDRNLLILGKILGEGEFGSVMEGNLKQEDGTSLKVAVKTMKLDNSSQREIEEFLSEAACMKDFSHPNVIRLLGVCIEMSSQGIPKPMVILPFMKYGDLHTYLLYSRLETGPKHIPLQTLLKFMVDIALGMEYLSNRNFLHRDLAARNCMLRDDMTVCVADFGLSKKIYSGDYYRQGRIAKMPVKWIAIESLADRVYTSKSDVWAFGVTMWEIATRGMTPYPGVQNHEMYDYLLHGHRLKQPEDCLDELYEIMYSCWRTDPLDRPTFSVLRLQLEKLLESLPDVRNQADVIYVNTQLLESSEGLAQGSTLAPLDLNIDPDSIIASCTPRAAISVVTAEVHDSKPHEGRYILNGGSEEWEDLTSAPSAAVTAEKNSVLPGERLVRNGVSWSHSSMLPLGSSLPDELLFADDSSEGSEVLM
Procedure, shortened: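 IC50 values from 10 concentrations via 4-parameter logistic fit of […], with DMSO as 100% and 1 μM reference compound as 0% activity. Reaction: MER kinase domain 528-999, 1 ng/well, 40 μM ATP (Km), biotin peptide, 5 mM MgCl2, 1 mM DTT, 3% DMSO, room temperature 60 min; HTRF streptavidin-XL665/Eu-antibody detection.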

[8] = Mer autophosphorylation ELISA in transient transfected 293A cells
[9] = AXL autophosphorylation ELISA in A-172 cells
[10] = Met autophosphorylation ELISA in PC-3 cells
[11] = protocol of Example D-2 (other compounds)
[12] = protocol of Example B-2 (other compounds)
[13] = protocol of Example C-2 (other compounds)

Sequence of Mer (phospho-Mer, MERTK-transfected 293A cells) (Q12866 21-999): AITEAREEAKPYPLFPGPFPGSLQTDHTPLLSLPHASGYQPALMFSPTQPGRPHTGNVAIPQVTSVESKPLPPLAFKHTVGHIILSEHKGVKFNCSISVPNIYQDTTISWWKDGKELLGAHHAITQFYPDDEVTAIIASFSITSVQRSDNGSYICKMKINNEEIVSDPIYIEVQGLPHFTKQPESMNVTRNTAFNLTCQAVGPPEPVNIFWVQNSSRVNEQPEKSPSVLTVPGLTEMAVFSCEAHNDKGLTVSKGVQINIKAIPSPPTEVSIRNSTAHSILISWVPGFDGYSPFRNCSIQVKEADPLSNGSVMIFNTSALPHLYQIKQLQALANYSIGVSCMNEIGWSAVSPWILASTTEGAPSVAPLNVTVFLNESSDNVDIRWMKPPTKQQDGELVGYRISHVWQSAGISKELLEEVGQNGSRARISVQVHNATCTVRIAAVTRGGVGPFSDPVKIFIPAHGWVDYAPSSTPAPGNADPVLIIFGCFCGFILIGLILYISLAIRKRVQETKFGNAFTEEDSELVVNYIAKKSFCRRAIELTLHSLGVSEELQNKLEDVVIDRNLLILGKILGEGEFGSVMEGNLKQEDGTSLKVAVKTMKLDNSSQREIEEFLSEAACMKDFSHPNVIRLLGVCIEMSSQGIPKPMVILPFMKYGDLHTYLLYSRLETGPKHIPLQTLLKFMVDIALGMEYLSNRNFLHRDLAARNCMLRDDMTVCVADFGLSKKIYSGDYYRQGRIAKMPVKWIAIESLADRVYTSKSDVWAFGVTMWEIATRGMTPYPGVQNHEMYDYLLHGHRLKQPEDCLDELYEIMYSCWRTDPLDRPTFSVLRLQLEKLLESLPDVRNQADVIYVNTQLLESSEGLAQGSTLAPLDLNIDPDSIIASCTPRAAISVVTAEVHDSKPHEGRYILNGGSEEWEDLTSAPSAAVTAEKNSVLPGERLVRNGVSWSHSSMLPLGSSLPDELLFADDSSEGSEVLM

## COc1cnc2c(Oc3ccc(NC(=O)c4c(C)n(CCF)cc(-c5ccc(F)c(F)c5)c4=O)cc3F)ccnc2c1 [Compound 807, 5-(3,4-difluorophenyl)-1-(2-fluoroethyl)-N-[3-fluoro-4-[(7-methoxy-1,5-naphthyridin-4-yl)oxy]phenyl]-2-methyl-4-oxopyridine-3-carboxamide]
[1]; transfected 293A cells
  IC50: < 0.1 µM
[2]; A-172 cells
  IC50: < 0.1 µM
[3]; PC-3 cells
  IC50: 0.1 to 0.3 µM

## COc1cnc2c(Oc3ccc(NC(=O)c4cn(CCF)c(C)c(-c5ccc(F)cc5)c4=O)cc3F)ccnc2c1 [Compound 624, 1-(2-Fluoroethyl)-N-[3-fluoro-4-[(7-methoxy-1,5-naphthyridin-4-yl)oxy]phenyl]-5-(4-fluorophenyl)-6-methyl-4-oxopyridine-3-carboxamide]
[1]; [8]
  IC50: < 0.1 µM
[2]; [9]
  IC50: < 0.1 µM
[3]; [10]
  IC50: < 0.1 µM

## COc1cnc2c(Oc3ccc(NC(=O)c4cn(CC(F)F)c(C)c(-c5ccc(F)cc5)c4=O)cc3F)ccnc2c1 [Compound 625, 1-(2,2-Difluoroethyl)-N-[3-fluoro-4-[(7-methoxy-1,5-naphthyridin-4-yl)oxy]phenyl]-5-(4-fluorophenyl)-6-methyl-4-oxopyridine-3-carboxamide]
[1]; [8]
  IC50: < 0.1 µM
[2]; [9]
  IC50: < 0.1 µM
[3]; [10]
  IC50: < 0.1 µM

## COc1cc2nccc(Oc3ccc(NC(=O)c4cc(F)c(C)n(-c5ccc(F)cc5)c4=O)cc3F)c2nc1OC [Compound 337, N-[4-[(6,7-dimethoxy-1,5-naphthyridin-4-yl)oxy]-3-fluorophenyl]-5-fluoro-1-(4-fluorophenyl)-6-methyl-2-oxopyridine-3-carboxamide]
[1]; [8]
  IC50: < 0.1 µM
[2]; [9]
  IC50: < 0.1 µM
[3]; [10]
  IC50: < 0.1 µM

## COc1cnc2c(Oc3ccc(NC(=O)c4cn(CCF)c(C)c(-c5ccc(F)cc5C)c4=O)cc3)ccnc2c1 [Compound 798, 1-(2-fluoroethyl)-5-(4-fluoro-2-methylphenyl)-N-[4-[(7-methoxy-1,5-naphthyridin-4-yl)oxy]phenyl]-6-methyl-4-oxopyridine-3-carboxamide]
[1]; [8]
  IC50: < 0.1 µM
[2]; [9]
  IC50: < 0.1 µM
[3]; [10]
  IC50: < 0.1 µM

## COCc1c(C(=O)Nc2ccc(Oc3ccnc4cc(OC)c(OC)nc34)c(F)c2)c(=O)c(-c2ccc(F)cc2)c(C)n1C [Compound 336, N-[4-[(6,7-dimethoxy-1,5-naphthyridin-4-yl)oxy]-3-fluorophenyl]-5-(4-fluorophenyl)-2-(methoxymethyl)-1,6-dimethyl-4-oxopyridine-3-carboxamide]
[1]; [8]
  IC50: < 0.1 µM
[2]; [9]
  IC50: < 0.1 µM
[3]; [10]
  IC50: < 0.1 µM

## Cc1ccc2nccc(Oc3ccc(NC(=O)c4c(C)nc(C)c(-c5ccc(F)cc5C)c4O)cc3)c2n1 [Compound 507, 5-(4-fluoro-2-methylphenyl)-4-hydroxy-2,6-dimethyl-N-[4-[(6-methyl-1,5-naphthyridin-4-yl)oxy]phenyl]pyridine-3-carboxamide]
[4]; protocol of Example D-2
  IC50: < 0.1 µM
[5]; protocol of Example B-2
  IC50: > 0.3 µM
[6]
  IC50: < 0.1 µM
[1]; [8]
  IC50: 0.1 to 0.3 µM
[7]; protocol of Example C-2
  IC50: 0.1 to 0.3 µM

## COc1cnc2c(Oc3ccc(NC(=O)c4cn(C(F)F)c(C)c(-c5ccc(F)cc5)c4=O)cc3F)ccnc2c1 [Compound 626, 1-(Difluoromethyl)-N-[3-fluoro-4-[(7-methoxy-1,5-naphthyridin-4-yl)oxy]phenyl]-5-(4-fluorophenyl)-6-methyl-4-oxopyridine-3-carboxamide]
[1]; [8]
  IC50: < 0.1 µM
[2]; [9]
  IC50: < 0.1 µM
[3]; [10]
  IC50: < 0.1 µM

## COc1cc2nccc(Oc3ccc(NC(=O)c4cnc(C(F)(F)F)c(-c5ccc(F)cc5)c4O)cc3F)c2nc1OC [Compound 79, N-[4-[(6,7-Dimethoxy-1,5-naphthyridin-4-yl)oxy]-3-fluorophenyl]-5-(4-fluorophenyl)-4-hydroxy-6-(trifluoromethyl)pyridine-3-carboxamide]
[4]; [11]
  IC50: 0.1 to 0.3 µM
[5]; [12]
  IC50: > 0.3 µM
[1]; [8]
  IC50: < 0.1 µM
[7]; [13]
  IC50: < 0.1 µM
[3]; [10]
  IC50: 0.1 to 0.3 µM

## COc1cnc2c(Oc3ccc(NC(=O)c4c(C)ncn(-c5ccc(F)cc5)c4=O)cc3)ccnc2c1 [Compound 255, 1-(4-Fluorophenyl)-N-[4-[(7-methoxy-1,5-naphthyridin-4-yl)oxy]phenyl]-4-methyl-6-oxopyrimidine-5-carboxamide]
[4]; [11]
  IC50: 0.1 to 0.3 µM
[5]; [12]
  IC50: > 0.3 µM
[1]; [8]
  IC50: < 0.1 µM
[7]; [13]
  IC50: < 0.1 µM
[3]; [10]
  IC50: 0.1 to 0.3 µM

## Cc1ncc(C(=O)Nc2ccc(Oc3ccnc4cc(F)cnc34)c(F)c2)c(O)c1-c1ccc(F)cc1 [Compound 160, N-[3-Fluoro-4-[(7-fluoro-1,5-naphthyridin-4-yl)oxy]phenyl]-5-(4-fluorophenyl)-4-hydroxy-6-methylpyridine-3-carboxamide]
[4]; [11]
  IC50: < 0.1 µM
[5]; [12]
  IC50: < 0.1 µM
[6]
  IC50: < 0.1 µM
[7]; [13]
  IC50: < 0.1 µM
[3]; [10]
  IC50: < 0.1 µM

## COc1cc2nccc(Oc3ccc(NC(=O)c4c(C)n(C)cc(-c5ccc(F)cc5)c4=O)cc3)c2nc1OC [Compound 238, N-[4-[(6,7-Dimethoxy-1,5-naphthyridin-4-yl)oxy]phenyl]-5-(4-fluorophenyl)-1,2-dimethyl-4-oxopyridine-3-carboxamide]
[4]; [11]
  IC50: < 0.1 µM
[5]; [12]
  IC50: > 0.3 µM
[1]; [8]
  IC50: < 0.1 µM
[7]; [13]
  IC50: < 0.1 µM
[3]; [10]
  IC50: < 0.1 µM

## COc1cnc2c(Oc3ccc(NC(=O)c4cn(CCO)c(C)c(-c5ccc(F)cc5)c4=O)cc3F)ccnc2c1 [Compound 621, N-[3-Fluoro-4-[(7-methoxy-1,5-naphthyridin-4-yl)oxy]phenyl]-5-(4-fluorophenyl)-1-(2-hydroxyethyl)-6-methyl-4-oxopyridine-3-carboxamide]
[4]; protocol of Example D-2
  IC50: < 0.1 µM
[5]; protocol of Example B-2
  IC50: > 0.3 µM
[6]
  IC50: 0.1 to 0.3 µM
[1]; [8]
  IC50: 0.1 to 0.3 µM
[7]; protocol of Example C-2
  IC50: < 0.1 µM

## Cc1ncc(C(=O)Nc2ccc(Oc3ccnc4cc(Br)cnc34)cc2)c(O)c1-c1ccc(F)cc1 [Compound 149, N-[4-[(7-Bromo-1,5-naphthyridin-4-yl)oxy]phenyl]-5-(4-fluorophenyl)-4-hydroxy-6-methylpyridine-3-carboxamide]
[4]; [11]
  IC50: < 0.1 µM
[5]; [12]
  IC50: 0.1 to 0.3 µM
[1]; [8]
  IC50: < 0.1 µM
[7]; [13]
  IC50: < 0.1 µM
[3]; [10]
  IC50: < 0.1 µM

## COc1cc2nccc(Oc3ccc(NC(=O)c4cn(-c5ccccn5)cc(-c5ccc(F)cc5)c4=O)cc3F)c2nc1OC [Compound 124, N-[4-[(6,7-Dimethoxy-1,5-naphthyridin-4-yl)oxy]-3-fluorophenyl]-5-(4-fluorophenyl)-4-oxo-1-pyridin-2-ylpyridine-3-carboxamide]
[4]; [11]
  IC50: < 0.1 µM
[5]; [12]
  IC50: > 0.3 µM
[1]; [8]
  IC50: < 0.1 µM
[7]; [13]
  IC50: < 0.1 µM
[3]; [10]
  IC50: < 0.1 µM

## Cc1cc(F)ccc1-c1c(C)ncc(C(=O)Nc2ccc(Oc3ccnc4cc(C(C)C)cnc34)cc2)c1O [Compound 597, 5-(4-Fluoro-2-methylphenyl)-4-hydroxy-6-methyl-N-[4-[(7-propan-2-yl-1,5-naphthyridin-4-yl)oxy]phenyl]pyridine-3-carboxamide]
[4]; protocol of Example D-2
  IC50: 0.1 to 0.3 µM
[5]; protocol of Example B-2
  IC50: > 0.3 µM
[6]
  IC50: 0.1 to 0.3 µM
[7]; protocol of Example C-2
  IC50: > 0.3 µM
